{"source": "patent US12208085B2", "about": "“Pyrazoline-derived compound for use in the prevention and/or treatment of pain and inflammation associated to surgery in mammals” (ECUPHAR NV, priority 2022, dated 2025)", "format_in_all_cases": "in vivo", "key": {"[1]": {"test_system": "dogs undergoing orthopaedic surgery", "assay": "Non-inferiority field study, postoperative pain and inflammation after orthopaedic surgery (SFGCMPS, VAS), meloxicam control", "description": "The study was a non-inferiority, multicentre, prospective, parallel-controlled, randomized and blinded field study.\nThirty-two dogs of different breed, age and weight presenting at the veterinary practice for orthopaedic surgery were included.\nAgents with analgesic effect were permitted as premedication. However, intraoperative or postoperative analgesia were not permitted.\nFor each dog the study lasted twelve days. Two days before surgery, all animals were weighed and underwent a thorough physical examination with clinical pathology to confirm the good health status of the animals before inclusion. Day 0 (D0) was the day dogs underwent surgery and t0 h corresponded to the end of surgery (extubation). The physical examination was repeated on D0, before surgery (t−2 h) and before dispatch (t8 h) and again at t24 h (D1) and t168 (D7) post-surgery. Clinical assessments of pain and inflammation were blindly performed on D0, before surgery (t−2 h) and again at t1.5 h, t3 h, t5 h, t8 h, t24 h (D1) and t168 h (D7) post-surgery. The global efficacy of treatments was assessed on D7. From day D1 to day D7 post-surgery, the owners assessed the dog's wellbeing.\nThe primary endpoint for efficacy comprises the sum of scores for the SFGCMPS scale, which was assessed at different time points by the Investigator.\nFrom day D1 to D7, owners daily assessed the dogs' wellbeing using scales for: • Demeanour (0=normal; 1=slightly modified; 2=moderately modified; 3=markedly modified and 4=severely modified). • Mobility (0=normal; 1=slightly impaired; 2=moderately impaired; 3=markedly impaired and 4=severely impaired). • Quality of analgesia as very satisfactory (=1); satisfactory (=2); not very satisfactory (=3); not at all satisfactory (=4).\nBlood samples were collected from all animals before inclusion (≤D−2), for routine pre-surgery blood profile. Potential adverse effects related to the products were also recorded.\nStatistical Analysis was performed by use of commercially available software. All analyses used a two-sided significance level α=0.05. […]"}, "[2]": {"test_system": "dogs undergoing soft tissue surgery", "assay": "Pilot field trial, postoperative pain and inflammation after elective soft tissue surgery (SFGCMPS, VAS), Placebo control", "set-up": "SFGCMPS Mobility average value / SFGCMPS Demeanour average value / SFGCMPS Posture/Activity average value / Total SFGCMPS average value / SFGCMPS Vocalization average value / SFGCMPS Attention to wound average value: scale not given here", "description": "The study was a single centre, prospective, parallel-controlled, randomized and blinded pilot field trial with a negative (Placebo) control to evaluate the efficacy of E-6087 in dogs undergoing elective soft tissue surgery.\nTwenty dogs (17 females and 3 males) were included in the study. Dogs were of different breeds or crossbreed, ages from 3 months to 7 years and weights from 4 to 34 kg. All dogs were clinically healthy other than the condition causing the animal to go under surgery.\nTwo days before surgery animals were weighed, a detailed physical examination was performed, and blood samples were collected for routine haematology and biochemistry to confirm the good health status of the animals before inclusion.\nDogs were randomly allocated to receive either E-6087 or Placebo as oral tablets. E-6087 and Placebo tablets were similar (same appearance and packaging), therefore treatment administration, clinical examinations and blood sample analysis was always blind.\nE-6087 was administered at the dose of 8 mg/kg on day D−1, approximately 24 h before surgery scheduled time, before the first meal of the day. Placebo tablets were administered following the same posology.\nSurgeries were performed in the morning, on day D0 by the Investigator (Surgeon). All surgeries were performed under the same anaesthesia protocol. Premedication was performed with medetomidine and morphine both at 0.1 ml/10 kg followed by anaesthesia maintained with Tiletamine/Zolazepam (Zoletil®). Local anaesthesia was not permitted. At the end of surgery, antibiotic therapy was administered to all dogs following the post-operative protocol stablished: amoxicillin (trihydrate) at 15 mg of amoxicillin/kg bw in a single dose.\nClinical assessments of postoperative pain and inflammation were done by the Investigator (Examining Veterinarian) using the SFGCMPS (13). Visual Analog Scales (VAS) were also used to assess pain at rest and under palpation as well as the level of inflammation.\nOn D0 at approximately 2 hours before surgery the Examining Veterinarian performed a physical examination and the clinical assessment of pain and inflammation to determine the basal scores. After surgery pain and inflammation were assessed at six examination time points: t1.5 h, t3 h, t5 h (±30 minutes), t8 h (±1 hour), t24 h and t168 (D7), when t0 h corresponded to the end of surgery (extubation).\nClinical assessment of pain and inflammation included assessments of vocalization, attention to wound area, mobility, reaction to pressure at the wound area, general behaviour as well as activity and posture as per SFGCMPS. In addition, pain at rest and after palpation as well as the level of inflammation were assessed at the same time points by VAS ranging from 0 (no pain) to 100 (severe pain manifested by vocalization, aggression, and refusal to allow examination) and from 0 (no inflammation) to 100 (major inflammation as local heat, redness or paresis of the affected area).\nStatistical Analysis was performed by use of commercially available software (SigmaPlot for Windows version 13.0). The area under the curve (AUC) was calculated for observable pain during the initial 8 and 24 hours, and it was considered as the primary efficacy variable. All analyses applied a two-sided significance level α=0.05 and a power β=80%. Demographic and baseline data were compared using the Mann-Whitney U test. Gender was compared with the Fisher exact probability test in contingency tables. Efficacy variables were analysed by repeated measures ANOVA.\nThe foremost surgical procedure was ovariohysterectomy, and this determined that most included animals were females. Sixteen females were ovariohysterectomized. Two males were castrated by cryptorchidectomy. […] All surgeries lasted less than 30 minutes except for one that lasted 54 minutes (perineal hernia)."}, "[3]": {"test_system": "dogs undergoing experimental orthopaedic surgery", "assay": "Postoperative pain after experimental knee surgery (Maquet Modified Procedure), SFGCPS scoring", "settings": "Beagle dogs", "method": "The study was performed with 6 clinically healthy Beagle dogs with similar age and weight that were experimentally subjected to knee surgery (repair of cranial cruciate ligament rupture). […] All surgeries were conducted under the same preoperative, intraoperative and postoperative protocols and performed by the same surgeon. A highly standardized surgical technique, Maquet Modified Procedure (MMP) (12) was implemented.\nFor each dog the study lasted 17 days, including a 7-day acclimatization period. On day D−1 (approximately 24 h before the intervention) the five dogs in the TG received a single oral dose (8 mg/kg) of the TP, the one dog in the CG received a single subcutaneous dose (0.1 mg/kg) of the RP. […] On day D0 all dogs underwent knee surgery in the right knee. From day D1 up to day D10 dogs were closely examined and signs of pain and discomfort were blindly evaluated and rated using the Short Form of the Glasgow Composite Pain Scale (SFGCPS) ranging from 0 to 24 (13 and http://www.newmetrica.com/cmps/). On day D−1 dogs were also examined to rule out signs of pain or discomfort."}, "[4]": {"settings": "8 mg/kg oral D-1, 1.5 h after surgery"}, "[5]": {"settings": "8 mg/kg oral D-1, 3 h after surgery"}, "[6]": {"settings": "8 mg/kg oral D-1, 5 h after surgery"}, "[7]": {"settings": "8 mg/kg oral D-1, 8 h after surgery"}, "[8]": {"settings": "8 mg/kg oral D-1, 24 h after surgery"}}, "data": [{"compound": "NS(=O)(=O)c1ccc(N2N=C(C(F)(F)F)CC2c2ccc(F)cc2F)cc1", "note": "(stereo not shown) [E-6087, enflicoxib]", "values": [{"measurement": "level of inflammation (VAS), compared with meloxicam", "setting": "[1]; 8 mg/kg oral D-1, 3 h after surgery, p=0.025", "result": "lower values"}, {"measurement": "assessment of global efficacy, compared with meloxicam", "setting": "[1]; 8 mg/kg oral D-1, D7, p=0.7879", "result": "No differences were detected"}, {"measurement": "SFGCMPS (AUC), primary efficacy variable, average value", "setting": "[1]; initial 24 hours after orthopaedic surgery, E-6087 8 mg/kg oral D-1, meloxicam 0.2 mg/kg D0 then 0.1 mg/kg daily to D7", "result": "95.50±57.70"}, {"measurement": "SFGCMPS Attention to wound average value", "setting": "[2]; [4]", "result": 0}, {"measurement": "SFGCMPS Demeanour average value", "setting": "[2]; [4]", "result": 0.83}, {"measurement": "SFGCMPS Mobility average value", "setting": "[2]; [4]", "result": 0.33}, {"measurement": "SFGCMPS Posture/Activity average value", "setting": "[2]; [4]", "result": 0.17}, {"measurement": "SFGCMPS Pressure on wound average value", "setting": "[2]; [4]", "result": 0.33}, {"measurement": "SFGCMPS Vocalization average value", "setting": "[2]; [4]", "result": 0.25}, {"measurement": "Total SFGCMPS average value", "setting": "[2]; [4]", "result": 1.92}, {"measurement": "SFGCMPS Attention to wound average value", "setting": "[2]; [5]", "result": 0.08}, {"measurement": "SFGCMPS Demeanour average value", "setting": "[2]; [5]", "result": 0.50}, {"measurement": "SFGCMPS Mobility average value", "setting": "[2]; [5]", "result": 0}, {"measurement": "SFGCMPS Posture/Activity average value", "setting": "[2]; [5]", "result": 0.08}, {"measurement": "SFGCMPS Pressure on wound average value", "setting": "[2]; [5]", "result": 0.42}, {"measurement": "SFGCMPS Vocalization average value", "setting": "[2]; [5]", "result": 0.25}, {"measurement": "Total SFGCMPS average value", "setting": "[2]; [5]", "result": 1.33}, {"measurement": "level of inflammation (VAS), compared with Placebo", "setting": "[2]; 8 mg/kg oral D-1, 3 hours after surgery, p=0.021, Placebo greater", "result": "statistically significant differences"}, {"measurement": "SFGCMPS Attention to wound average value", "setting": "[2]; [6]", "result": 0.08}, {"measurement": "SFGCMPS Demeanour average value", "setting": "[2]; [6]", "result": 0.17}, {"measurement": "SFGCMPS Mobility average value", "setting": "[2]; [6]", "result": 0}, {"measurement": "SFGCMPS Posture/Activity average value", "setting": "[2]; [6]", "result": 0}, {"measurement": "SFGCMPS Pressure on wound average value", "setting": "[2]; [6]", "result": 0.50}, {"measurement": "SFGCMPS Vocalization average value", "setting": "[2]; [6]", "result": 0}, {"measurement": "Total SFGCMPS average value", "setting": "[2]; [6]", "result": 0.75}, {"measurement": "SFGCMPS Attention to wound average value", "setting": "[2]; [7]", "result": 0}, {"measurement": "SFGCMPS Demeanour average value", "setting": "[2]; [7]", "result": 0}, {"measurement": "SFGCMPS Mobility average value", "setting": "[2]; [7]", "result": 0}, {"measurement": "SFGCMPS Posture/Activity average value", "setting": "[2]; [7]", "result": 0}, {"measurement": "SFGCMPS Pressure on wound average value", "setting": "[2]; [7]", "result": 0.67}, {"measurement": "SFGCMPS Vocalization average value", "setting": "[2]; [7]", "result": 0}, {"measurement": "Total SFGCMPS average value", "setting": "[2]; [7]", "result": 0.50}, {"measurement": "SFGCMPS Attention to wound average value", "setting": "[2]; [8]", "result": 0}, {"measurement": "SFGCMPS Demeanour average value", "setting": "[2]; [8]", "result": 0}, {"measurement": "SFGCMPS Mobility average value", "setting": "[2]; [8]", "result": 0}, {"measurement": "SFGCMPS Posture/Activity average value", "setting": "[2]; [8]", "result": 0}, {"measurement": "SFGCMPS Pressure on wound average value", "setting": "[2]; [8]", "result": 0.50}, {"measurement": "SFGCMPS Vocalization average value", "setting": "[2]; [8]", "result": 0}, {"measurement": "Total SFGCMPS average value", "setting": "[2]; [8]", "result": 0.50}, {"measurement": "AUC (primary efficacy variable) for the first 24 hours after surgery, compared with Placebo", "setting": "[2]; 8 mg/kg oral D-1, difference not statistically significant (p=0.266)", "result": "almost half"}, {"measurement": "SFGCMPS AUC0→8 h", "setting": "[2]; 8 mg/kg oral D-1, first 8 hours after surgery", "result": "8.0 ± 5.0"}, {"measurement": "SFGCMPS AUC0→24 h", "setting": "[2]; 8 mg/kg oral D-1, first 24 hours after surgery", "result": "16.0 ± 15"}, {"measurement": "AUC for the first 8 hours, compared with Placebo", "setting": "[2]; 8 mg/kg oral D-1, p=0.033", "result": "statistically significant lower values"}, {"measurement": "Total scores for SFGCMPS at each time point, compared with Placebo", "setting": "[2]; 8 mg/kg oral D-1, significant only at 1.5, 3 and 5 hours", "result": "always lower"}, {"measurement": "adverse events", "setting": "[2]; 8 mg/kg oral D-1, whole study", "result": "No adverse events were observed"}, {"measurement": "alleviation of pain and inflammation after soft tissue surgery (conclusion)", "setting": "[2]; single dose of 8 mg/kg", "result": "effective in alleviating pain and inflammation"}, {"measurement": "potential adverse effects related to product administration", "setting": "[3]; single oral dose 8 mg/kg on D-1", "result": "No potential adverse effects"}, {"measurement": "need of rescue analgesia", "setting": "[3]; single oral dose 8 mg/kg on D-1, 10 days follow up", "result": "None of the animals needed rescue analgesia"}, {"measurement": "analgesic efficacy in the postoperative period after orthopaedic surgery", "setting": "[3]; single oral dose 8 mg/kg on D-1, knee surgery D0", "result": "effective as analgesic agent"}]}]}
